Test results from patent US4704380A, “Method of stimulating the growth of macrophage-like cells utilizing mitogenic peptides” (Washington University, priority 1987, dated 1987).

Assays:
Assay type in all cases: cell-based
[1] = test system: J774 murine macrophage-like cells; test: 3[H]-TdR incorporation in growth-arrested J774 cells
Experimental: (§1) The growth stimulation of macrophage-like cells can be determined by measuring the thymidine uptake of the cells at varying concentrations of the mitogenic peptides of the present invention. This was determined for several macrophage-like cell lines including J774, P388D1, RAW and PU5. These are well-known murine cell lines available, for example, from the American Type Culture Collection, Rockville, Md.
^3 [H]-TdR incorporation. Various cell lines were plated in Dulbeccos's Modified Eagle Medium (DMEM) containing 10% fetal calf serum (FCS) in […] humidified atmosphere at 37° C. at an initial density of 5×10^5 per well in 24 well disposable plastic plates (Falcon, Oxnard, Calif.). Arrest of DNA synthesis (i.e., G0 /G1) was achieved by incubating the cells for 48 hours in serum-free DMEM containing 0.1% bovine serum albumin (BSA). The cells were then exposed to the peptide or to various […], or to FCS for 48 hours. Enhanced thymidine incorporation was assessed following a 2 hour pulse of N-methyl^3 [H]-TdR (1 μCi/ml). The cells were washed ×3 in PBS (phosphate buffered saline, pH 7.4) at 4, precipitated with 10% trichloroacetic acid (30 min at 4) and the insoluble material extracted ×2 with ETOH:ET2 O (3:1 v/v). The precipitate was solubilized in N NaOH and aliquots withdrawn for protein determinations using a dye-binding assay (Bio Rad Labs., Richmond, Calif.) and liquid scintillation spectrometry.
(§2) The various cell lines employed in these tests were the murine macrophage-like cell lines J774, P388D1, RAW and PU5. The various […] used in these tests were platelet-derived growth factor (PDGF), epidermal growth factor (EGF), fibroblast growth factor (FGF), and nerve growth factor (NGF). For background information on these known polypeptide growth factors see, for example, the recent review article by Kris et al., Biotechnology, February 1985, pp. 135-140; and the comprehensive review in Hormonal Proteins and Peptides, Ed. by Choh Hao Li, Vol. 12, "Growth Factors," Academic Press, 1984. EGF, NGF and FGF are commercially available from Biomedical Technologies, Cambridge, Massachusetts. In a representative test, 24 hours following exposure of the growth-arrested cells to optimal concentrations of the peptide (i.e., 10^-8 M), cell numbers inoreased approximately two-fold from a control value of […] cells/culture well. […] The results are set forth in FIG. 2 and in Table I, below. In FIG. 2, the baseline tritiated thymidine (^3 [H]-TdR) incorporation in quiescent J774 cells was 5000 cpm ± 420 s.e.m. (standard error of the mean) per well. The results are expressed as the mean of triplicate determinations.

[2] = test system: growth-arrested murine macrophage-like cells; test: Cell number / proliferation of growth-arrested macrophage-like cells; details: for proliferation of macrophage-like cells: concentration ranges of up to 500 ng/ml
Description: as §2

[3] = test system: RAW murine macrophage-like cell line; test: 3[H]-TdR incorporation in growth-arrested RAW cells
Experimental: as §1
(§3) ^3 [H]-TdR incorporation. Various cell lines were plated in Dulbeccos's Modified Eagle Medium (DMEM) containing 10% fetal calf serum (FCS) in […] humidified atmosphere at 37° C. at an initial density of 5×10^5 per well in 24 well disposable plastic plates (Falcon, Oxnard, Calif.). Arrest of DNA synthesis (i.e., G0 /G1) was achieved by incubating the cells for 48 hours in serum-free DMEM containing 0.1% bovine serum albumin (BSA). The cells were then exposed to the peptide or to various […], or to FCS for 48 hours. Enhanced thymidine incorporation was assessed following a 2 hour pulse of N-methyl^3 [H]-TdR (1 μCi/ml). […]
(§4) The various cell lines employed in these tests were the murine macrophage-like cell lines J774, P388D1, RAW and PU5. […] The results are expressed as the mean of triplicate determinations.

[4] = test system: PU5 murine macrophage-like cell line; test: 3[H]-TdR incorporation in growth-arrested PU5 cells
Experimental: as §1, §3, §4

[5] = test system: P388D1 murine macrophage-like cell line; test: 3[H]-TdR incorporation in growth-arrested P388D1 cells
Experimental: as §1, §3, §4

[6] = J774, test (1), >500 ng per well (highest concentration tested), 48 hours exposure, mean ± s.e.m.

EGF: epidermal growth factor, known polypeptide growth factor [reference compound]
3[H]-TdR Incorporation/mg/Protein (% Increase) [1, 6]: 5.2± 0.2% | proliferation of macrophage-like cells [2]: failed to elicit proliferation

H-YPPWNKNFTENDLL-OH [Peptide I, H-Tyr-Pro-Pro-Trp-Asn-Lys-Asn-Phe-Thr-Glu-Asn-Asp-Leu-Leu-OH]
Conc./Well: concentration yielding optimal specific 3[H]-TdR incorporation ([1]; J774): 10^-8 M | 3[H]-TdR Incorporation/mg/Protein (% Increase) ([1]; J774, test (1), 10^-8 M per well, 48 hours exposure, mean ± s.e.m. of triplicate cultures): 140± 8.5% | 3[H]-TdR Incorporation/mg/Protein (% Increase) ([1]; J774, test (2), 10^-8 M per well, mean ± s.e.m.): 190± 12% | Conc./Well: concentration yielding optimal specific 3[H]-TdR incorporation [3]: 10^ -8 M | 3[H]-TdR Incorporation/mg/Protein (% Increase) ([3]; test (2), 10^-8 M per well, mean ± s.e.m.): 276± 18% | increase in cell numbers over control ([2]; 24 hours after exposure of growth-arrested cells to 10^-8 M): approximately two-fold | Conc./Well: concentration yielding optimal specific 3[H]-TdR incorporation ([4]; PU5): 10^ -6 M | 3[H]-TdR Incorporation/mg/Protein (% Increase) ([4]; PU5, test (2), 10^-6 M per well, mean ± s.e.m.): 112± 4.4% | Conc./Well: concentration yielding optimal specific 3[H]-TdR incorporation ([5]; P388D1): 10^ -7 M | 3[H]-TdR Incorporation/mg/Protein (% Increase) ([5]; P388D1, test (2), 10^-7 M per well, mean ± s.e.m.): 226± 22%

NGF: nerve growth factor, known polypeptide growth factor [reference compound]
3[H]-TdR Incorporation/mg/Protein (% Increase) [1, 6]: 0± 0.5% | proliferation of macrophage-like cells [2]: failed to elicit proliferation

PDGF [reference compound]
3[H]-TdR Incorporation/mg/Protein (% Increase) [1, 6]: 9.4± 0.3% | proliferation of macrophage-like cells [2]: failed to elicit proliferation
